Measurements: patent US20260191841A1, “TREATMENT OF CHRONIC KIDNEY DISEASE IN TYPE I DIABETES MELLITUS” (BAYER AKTIENGESELLSCHAFT, priority 2022, published 2026)

What was measured:
[1] = patients with CKD and T1D; vs placebo; cited from earlier work
[2] = FIDELITY UACR mixed model, restricted to patients with UACR>=200 mg/g and eGFR between 25 and 90 ml/min/1.73 m^2; type: in vivo, human; conditions: FIDELITY restricted population
Method: UACR will be analyzed assuming a lognormal distribution. Assumptions for the UACR ratios to baseline at 6 months are based on the FIDELITY UACR mixed model restricted to patients with UACR>=200 mg/g and eGFR between 25 and 90 ml/min/1.73 m^2.
In the FIDELITY restricted population, the UACR ratio to baseline after 4 months was 0.61 and 0.53 after 12 months in the finerenone group. The value, using interpolation, at 6 months was estimated to be 0.59. As a conservative approach, we will assume the treatment ratio (finerenone/placebo) over 6 months to be 0.7 (i.e., the difference in UACR ratio to baseline between finerenone and placebo to be 30%). The standard deviation was calculated to range from 0.75 and 1.0 between month 4 and 12. Using linear interpolation, at month 6 it was assumed to be approximately 0.8.

[3] = patients with T2D; coadministered with an ACEI or an ARB; cited from earlier work

Oc1ncnc2[nH]ncc12 [allopurinol]
albuminuria [1]: did not reduce albuminuria
rate of kidney function decline [1]: nor delay the rate of kidney function decline

CCOc1ncc(C)c2c1[C@H](c1ccc(C#N)cc1OC)C(C(N)=O)=C(C)N2 [finerenone, (4S)-4-(4-cyano-2-methoxyphenyl)-5-ethoxy-2,8-dimethyl-1,4-dihydro-1,6-naphthyridine-3-carboxamide]
UACR ratio to baseline ([2]; after 4 months, finerenone group): 0.61
UACR ratio to baseline ([2]; after 12 months, finerenone group): 0.53
UACR ratio to baseline ([2]; at 6 months, estimated using interpolation): 0.59
cardiovascular morbidity [3]: reduces cardiovascular morbidity
progression of diabetic kidney disease [3]: delays the progression of diabetic kidney disease
